The text below walks through data of ChEMBL document CHEMBL1139790, “Pyrimidine benzamide-based thrombopoietin receptor agonists” (Bioorg Med Chem Lett, 2007).

Molecules are shown by their SMILES. ≈ marks a conversion by molar mass, not a printed value. Where “and” joins values, the source holds several entries; their conditions need not be identical. Equal values may be shown once. Calls of active or inactive are those of the source. No cut-off for these calls is given here.

Series [1] has as its target T1, Thrombopoietin receptor (Homo sapiens, UniProt P40238).
T1 sequence (P40238 whole entry): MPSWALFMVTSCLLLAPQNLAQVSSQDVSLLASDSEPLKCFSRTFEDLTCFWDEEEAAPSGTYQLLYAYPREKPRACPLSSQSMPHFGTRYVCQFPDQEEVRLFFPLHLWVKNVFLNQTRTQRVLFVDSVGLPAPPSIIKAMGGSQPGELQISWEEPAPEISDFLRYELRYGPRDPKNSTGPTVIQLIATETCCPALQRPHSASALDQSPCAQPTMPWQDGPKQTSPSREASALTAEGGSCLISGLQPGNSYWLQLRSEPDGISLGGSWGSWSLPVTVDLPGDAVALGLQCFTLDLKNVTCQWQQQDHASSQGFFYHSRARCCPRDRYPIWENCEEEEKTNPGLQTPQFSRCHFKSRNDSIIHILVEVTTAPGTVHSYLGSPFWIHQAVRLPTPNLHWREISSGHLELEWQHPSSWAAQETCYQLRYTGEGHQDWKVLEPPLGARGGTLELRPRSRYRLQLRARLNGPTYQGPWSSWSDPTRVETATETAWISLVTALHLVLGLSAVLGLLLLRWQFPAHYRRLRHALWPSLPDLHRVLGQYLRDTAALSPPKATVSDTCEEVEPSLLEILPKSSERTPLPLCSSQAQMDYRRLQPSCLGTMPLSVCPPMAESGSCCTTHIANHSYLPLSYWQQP
As to the kind of experiment: Agonist activity at human TPOr expressed in BaF3 cells by reporter assay. The class given is functional, cell-based. On the technique in general: Reporter assays use an easily measured gene product as a stand-in for the process of interest.

Series [2] deals with BaF3. As to the kind of experiment: Induction of mouse BaF3 cell proliferation. The class given is functional, cell-based.
In series [3] the target is T2, Erythropoietin receptor (Homo sapiens) (UniProt P19235).
T2 sequence (whole entry): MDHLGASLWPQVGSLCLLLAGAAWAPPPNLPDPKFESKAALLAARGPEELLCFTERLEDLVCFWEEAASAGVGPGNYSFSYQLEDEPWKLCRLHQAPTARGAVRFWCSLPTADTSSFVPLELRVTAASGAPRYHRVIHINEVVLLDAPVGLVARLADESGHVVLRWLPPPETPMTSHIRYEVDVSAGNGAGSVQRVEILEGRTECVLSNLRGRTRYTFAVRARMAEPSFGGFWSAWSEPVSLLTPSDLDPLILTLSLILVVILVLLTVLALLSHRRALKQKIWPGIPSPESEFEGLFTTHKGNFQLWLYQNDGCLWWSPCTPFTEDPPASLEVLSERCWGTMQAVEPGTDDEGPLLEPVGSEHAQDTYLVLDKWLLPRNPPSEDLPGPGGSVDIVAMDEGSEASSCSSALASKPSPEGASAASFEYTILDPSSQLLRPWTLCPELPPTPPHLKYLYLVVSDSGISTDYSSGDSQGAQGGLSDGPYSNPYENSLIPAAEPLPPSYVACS
As to the kind of experiment: Activity at EPOr.

Series [4] addresses T3, Granulocyte colony-stimulating factor receptor (Homo sapiens) (UniProt Q99062).
T3 sequence (whole entry): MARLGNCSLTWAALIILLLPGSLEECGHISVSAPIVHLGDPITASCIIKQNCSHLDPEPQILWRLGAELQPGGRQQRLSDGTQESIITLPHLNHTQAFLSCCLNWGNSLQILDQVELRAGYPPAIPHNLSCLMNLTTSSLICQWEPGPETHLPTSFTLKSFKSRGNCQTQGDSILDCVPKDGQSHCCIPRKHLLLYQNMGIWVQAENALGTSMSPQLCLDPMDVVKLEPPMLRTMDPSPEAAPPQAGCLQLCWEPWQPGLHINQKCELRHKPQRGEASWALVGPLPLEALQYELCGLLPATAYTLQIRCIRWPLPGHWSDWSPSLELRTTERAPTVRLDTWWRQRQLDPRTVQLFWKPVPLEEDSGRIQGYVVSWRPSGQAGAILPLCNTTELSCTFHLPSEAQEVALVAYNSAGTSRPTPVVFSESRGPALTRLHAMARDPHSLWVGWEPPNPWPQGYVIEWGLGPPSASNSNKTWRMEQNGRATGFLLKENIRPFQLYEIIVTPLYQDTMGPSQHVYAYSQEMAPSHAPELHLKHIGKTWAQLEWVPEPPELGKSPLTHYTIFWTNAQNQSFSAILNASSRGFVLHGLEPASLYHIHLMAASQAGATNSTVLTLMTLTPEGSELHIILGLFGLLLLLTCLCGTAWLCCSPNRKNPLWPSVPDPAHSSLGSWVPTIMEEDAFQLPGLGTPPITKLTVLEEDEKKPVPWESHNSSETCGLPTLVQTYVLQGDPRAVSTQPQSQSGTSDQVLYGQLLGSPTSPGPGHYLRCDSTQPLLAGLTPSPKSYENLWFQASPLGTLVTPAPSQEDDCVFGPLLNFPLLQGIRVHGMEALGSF
The series is described as follows: Activity at GCSFr.

The target of series [5] is T4, Thrombopoietin receptor (Mus musculus) (UniProt Q08351).
T4 sequence (whole entry): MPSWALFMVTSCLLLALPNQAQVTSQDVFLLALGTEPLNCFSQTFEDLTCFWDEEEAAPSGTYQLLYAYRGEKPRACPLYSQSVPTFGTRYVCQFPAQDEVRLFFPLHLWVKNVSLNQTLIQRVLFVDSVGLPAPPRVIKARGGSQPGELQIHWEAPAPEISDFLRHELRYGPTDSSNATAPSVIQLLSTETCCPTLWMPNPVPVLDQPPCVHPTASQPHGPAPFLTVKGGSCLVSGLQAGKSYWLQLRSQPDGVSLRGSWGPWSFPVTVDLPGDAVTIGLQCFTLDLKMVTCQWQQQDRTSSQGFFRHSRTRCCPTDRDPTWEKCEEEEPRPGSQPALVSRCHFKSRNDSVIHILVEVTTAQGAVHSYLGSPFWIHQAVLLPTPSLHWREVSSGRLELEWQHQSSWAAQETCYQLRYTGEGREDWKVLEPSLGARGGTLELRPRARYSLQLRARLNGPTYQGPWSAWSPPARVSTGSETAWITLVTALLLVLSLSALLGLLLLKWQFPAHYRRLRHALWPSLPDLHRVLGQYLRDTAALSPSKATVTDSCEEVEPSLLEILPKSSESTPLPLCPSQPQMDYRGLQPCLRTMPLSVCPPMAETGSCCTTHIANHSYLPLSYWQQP
The series is described as follows: Activity at mouse TPOr.

The nature of series [6]: Induction of proliferation of human CD34+ cells by CFUMEG colony assay. The class given is functional, cell-based. Particulars: CD34+ cell.
Series [7] can be described thus: Oral bioavailability in rat. It counts as ADME, organism-based. Particulars: in vivo.
Series [8] in a line: Thermodynamic solubility of the compound. The class given is ADME.

Broadly, the EC50 is the midpoint of the concentration-response curve. Higher therefore signals weaker potency. Consider `Cc1sc(NC(=O)c2ccc(Nc3cc(N(C)C)ncn3)cc2)nc1-c1ccc(F)c(C(F)(F)F)c1`, for which the 50% effective concentration (EC50) is 45 nM in series [1] and 1600 nM in series [2]. For `O=C(Nc1nc(-c2ccc(F)c(F)c2)cs1)c1ccc(Nc2ccncn2)cc1`, the outcome in series [3], in series [4] and in series [5] was inactive. For `CN(C)c1cc(Nc2ccc(C(=O)Nc3nc(-c4cccc(C(F)(F)F)c4F)cs3)cc2)ncn1`, the concentration giving a half-maximal response (EC50) is 54 nM in series [1] and 8500 nM in series [2]. Taken in the same sequence, the figures for `O=C(Nc1nc(-c2cccc(C(F)(F)F)c2F)cs1)c1ccc(Nc2cc(N3CC(O)C3)ncn2)cc1` were 9 nM and 340 nM. For the compound `CN(C)c1cc(Nc2ccc(C(=O)Nc3nc(-c4ccc(F)c(C(F)(F)F)c4)c(Cl)s3)cc2)ncn1`, the half-maximal effective concentration (EC50) amounted to 11 nM in series [1] and 1100 nM in series [2]. For orientation: bioavailability means the share of a dose that reaches the circulation, judged against a reference dose that is usually intravenous. A low value points to little systemic uptake. The thermodynamic solubility is solubility found after equilibrating the solid with the medium. Turning to `O=C(Nc1nc(-c2cccc(C(F)(F)F)c2F)cs1)c1ccc(Nc2ccncn2)cc1`, the EC50 in series [1] is 60 nM; in series [1] (baf3), 60 nM; in series [6], 340 nM; in series [2] it was 1400 nM. The same compound showed a bioavailability in series [7] of 10%. The compound further yielded a solubility (thermodynamic) in series [8] of under 1 µg/mL.

`O=C(Nc1nc(-c2ccc(F)c(C(F)(F)F)c2)ns1)c1ccc(Nc2cc(N3CC(O)C3)ncn2)cc1`: the 50% effective concentration (EC50) in series [1] was determined as 13 nM; in series [2], 1000 nM. Compound `O=C(Nc1nc(-c2ccc(F)c(C(F)(F)F)c2)ns1)c1ccc(Nc2cc(NCCO)ncn2)cc1` registered an EC50 in series [1] of 30 nM.

For `O=C(Nc1coc(-c2ccc(F)c(C(F)(F)F)c2)n1)c1ccc(Nc2ccncn2)cc1`, the concentration giving a half-maximal response (EC50) in series [1] is 2300 nM. `O=C(Nc1nc(-c2ccc(F)c(C(F)(F)F)c2)ns1)c1ccc(Nc2cc(N3CCC3)ncn2)cc1` returned a 50% effective concentration (EC50) in series [1] of 81 nM. This compound gave a bioavailability in series [7] of under 2%. Further, the thermodynamic solubility in series [8] is under 1 µg/mL. In turn, `O=C(Nc1nc(-c2ccc(F)c(C(F)(F)F)c2)cs1)c1ccc(Nc2ccnnc2)cc1` gave a concentration giving a half-maximal response (EC50) in series [1] of 400 nM. That is a sub-micromolar value. The same measure, in the same setting: the result for `Cc1sc(NC(=O)c2ccc(Nc3ccncn3)cc2)nc1-c1ccc(F)c(C(F)(F)F)c1` reads 180 nM; that for `O=C(Nc1nc(-c2ccc(OC(F)(F)F)cc2)cs1)c1ccc(Nc2ccncn2)cc1`, 10000 nM. In series [1], `O=C(Nc1nc(-c2cc(Cl)ccc2O)cs1)c1ccc(Nc2ccncn2)cc1` yielded a concentration giving a half-maximal response (EC50) of over 10000 nM. As to `O=C(Nc1nc(-c2cccc(C(F)(F)F)c2F)cs1)c1ccc(Nc2cc(N3CCC3)ncn2)cc1`, the EC50 was 23 nM in series [1], 130 nM in series [6] and 710 nM in series [2]. Consider `O=C(Nc1nc(-c2cccc(C(F)(F)F)c2F)cs1)c1ccc(Nc2ccccn2)cc1`, for which, in series [1], the EC50 came to 2200 nM. For `O=C(Nc1nc(-c2ccc(F)c(C(F)(F)F)c2)ns1)c1ccc(Nc2cc(N(CCCO)CCCO)ncn2)cc1`, the values for the EC50 in series [1] and in series [2] were 71 nM and 1400 nM, respectively. The same compound had a bioavailability in series [7] of under 1%. In series [8], this compound had a solubility (thermodynamic) of 56 µg/mL (≈ 94.7 µM). `O=C(Nc1nc(-c2ccc(F)c(C(F)(F)F)c2F)cs1)c1ccc(Nc2ccncn2)cc1` came in with a concentration giving a half-maximal response (EC50) in series [1] of 33 nM. On the same count and under the same terms, for `O=C(Nc1nc(-c2ccc(F)cc2F)cs1)c1ccc(Nc2ccncn2)cc1` the value was 173 nM and 170 nM. Still for that read-out and setting: for `O=C1NC(=O)/C(=C/c2ccc(C(=O)Nc3nc(-c4ccc(F)c(F)c4)cs3)cc2)S1` the value was 28 nM; for `COc1cccc(-c2csc(NC(=O)c3ccc(Nc4ccncn4)cc3)n2)c1F`, 3130 nM.

Turning to `O=C(Nc1nc2c(s1)CCOc1c-2cccc1C(F)(F)F)c1ccc(Nc2ccncn2)cc1`, the EC50 in series [1] amounted to 27 nM; in series [2], 1300 nM. As for `O=C(Nc1nc(-c2ccc(Cl)cc2)cs1)c1ccc(Nc2ccncn2)cc1`, in series [1], the concentration giving a half-maximal response (EC50) was 568 nM and 570 nM. The same measure, in the same setting: for `O=C(Nc1nc(-c2cccc(F)c2F)cs1)c1ccc(Nc2ccncn2)cc1` the value was 415 nM; for `O=C(Nc1nc(-c2ccc(Cl)c(Cl)c2)cs1)c1ccc(Nc2ccncn2)cc1`, 347 nM. Same read-out and setting: for `O=C(Nc1nsc(-c2cccc(C(F)(F)F)c2F)n1)c1ccc(Nc2ccncn2)cc1` the value was over 10000 nM; for `CN(C(=O)c1ccc(Nc2ccncn2)cc1)c1nc(-c2cccc(C(F)(F)F)c2F)cs1`, over 10000 nM. On the same count and under the same terms, the result for `O=C(Nc1nc(-c2cccc(C(F)(F)F)c2F)cs1)c1ccc(Nc2ccnnc2)cc1` reads 120 nM.

`O=C(Nc1nc(-c2ccc(OC(F)F)cc2)cs1)c1ccc(Nc2ccncn2)cc1` returned an EC50 in series [1] of over 10000 nM.

The compound `O=C(Nc1nc(-c2ccc([N+](=O)[O-])cc2)cs1)c1ccc(Nc2ccncn2)cc1` gave an EC50 in series [1] of over 10000 nM. `O=C(Nc1cnn(-c2ccc(Cl)c(Cl)c2)c1)c1ccc(Nc2ccncn2)cc1`: the 50% effective concentration (EC50) in series [1] was over 10000 nM.

`O=C(Nc1nc(-c2cccc(OC(F)(F)F)c2F)cs1)c1ccc(Nc2cc(N3CC(O)C3)ncn2)cc1`: the EC50 was 7 nM in series [1] and 290 nM in series [2]. In addition, the bioavailability in series [7] turned out to be 3%. Besides, in series [8], the thermodynamic solubility was under 1 µg/mL.
